Experimental data taken from patent US5177096A, “Substituted 5-((tetrazolyl)alkenyl)imidazoles and pharmaceutical methods of use thereof” (SmithKline Beecham Corporation, priority 1990, dated 1993).
Like-named read-outs stand apart in the source and are kept apart here.

System: pressor response to angiotensin II
Experiment: Inhibition of pressor response to angiotensin II in conscious rats
Format: in vivo
Details: Rattus norvegicus, read-out: IC50 (dose of compound needed to produce 50% inhibition of the control response to angiotensin II)
Procedure: Angiotensin II antagonist activity of the compounds of Formula (I) is assessed by in vitro and in vivo methods. In vitro antagonist activity is determined by the ability of the compounds to compete with ^125 I-angiotensin II for binding to vascular angiotensin II receptors and by their ability to antagonize the contractile response to angiotensin II in the isolated rabbit aorta. In vivo activity is evaluated by the efficacy of the compounds to inhibit the pressor response to exogenous angiotensin II in conscious rats and to lower blood pressure in a rat model of renin dependent hypertension.
Rats are prepared with indwelling femoral arterial and venous catheters and a stomach tube (Gellai et al., Kidney Int. 15:419, 1979). Two to three days following surgery the rats are placed in a restrainer and blood pressure is continuously monitored from the arterial catheter with a pressure transducer and recorded on a polygraph. The change in mean arterial pressure in response to intravenous injections of […] angiotensin II is compared at various time points prior to and following the administration of the compounds intravenously or orally at doses of 3 to 300 mg/kg. The dose of compound needed to produce 50% inhibition of the control response to angiotensin II (IC50) is used to estimate the potency of the compounds.

Question: What does the source list for CCCCc1ncc(/C=C(\Cc2cccs2)c2nnn[nH]2)n1Cc1ccccc1Cl [Example 1, (E)-1-[2-n-Butyl-1-{(2-chlorophenyl)methyl}-1H-imidazol-5-yl]-2-(1H-tetrazol-5-yl)-3-(2-thienyl)-1-propene]?
Answer: ED50 (iv): 8 mg/kg; ED50 (po, orally): 13 mg/kg
